The source of these data is patent US20260335451A1, “SOLID ORAL DOSAGE FORMS OF ESTROGEN RECEPTOR DEGRADERS” (Arvinas Operations, Inc., priority 2023, published 2026).

A value given as a limit tells only on which side of the number the result lay.

Data set [1] can be described thus: Biopharmaceutics Classification System class. Type of data set: physicochemical.
Data set [2] can be described thus: Preclinical exposure of epimer Compound B vs Compound A. Particulars: preclinical data; epimer formed by interconversion of Compound A. It counts as in vivo.
Another data set has as its target T1, ER (Homo sapiens, UniProt P03372).
T1 construct: PROTAC recruits cereblon (CRBN) E3 ligase
T1 sequence (P03372 1-595): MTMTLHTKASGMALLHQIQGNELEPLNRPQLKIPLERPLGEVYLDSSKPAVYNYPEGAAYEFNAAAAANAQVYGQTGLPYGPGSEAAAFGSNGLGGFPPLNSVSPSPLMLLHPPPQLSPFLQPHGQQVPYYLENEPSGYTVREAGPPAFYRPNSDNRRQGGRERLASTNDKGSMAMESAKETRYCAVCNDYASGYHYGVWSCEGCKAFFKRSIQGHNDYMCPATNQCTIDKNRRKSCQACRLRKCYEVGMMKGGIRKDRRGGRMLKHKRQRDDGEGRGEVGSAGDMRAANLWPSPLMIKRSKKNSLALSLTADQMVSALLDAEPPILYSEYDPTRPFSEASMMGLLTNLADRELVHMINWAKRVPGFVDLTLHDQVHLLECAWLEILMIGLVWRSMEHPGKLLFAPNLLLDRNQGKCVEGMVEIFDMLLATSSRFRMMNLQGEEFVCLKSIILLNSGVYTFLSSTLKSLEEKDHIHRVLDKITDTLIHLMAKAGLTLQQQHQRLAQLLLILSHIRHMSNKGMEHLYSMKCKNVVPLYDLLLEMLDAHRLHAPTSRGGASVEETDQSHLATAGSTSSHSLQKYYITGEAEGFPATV
Description: ER degradation. Conditions: evidence in words.

`O=C1CC[C@H](N2Cc3cc(N4CCN(CC5CCN(c6ccc([C@@H]7c8ccc(O)cc8CC[C@@H]7c7ccccc7)cc6)CC5)CC4)ccc3C2=O)C(=O)N1` [Compound A, (S)-3-(5-(4-((1-(4-((1R,2S)-6-hydroxy-2-phenyl-1,2,3,4-tetrahydronaphthalen-1-yl)phenyl)piperidin-4-yl)methyl)piperazin-1-yl)-1-oxoisoindolin-2-yl)piperidine-2,6-dione]: in data set [1], the “permeability (in words, BCS)” value is listed as “low permeability” and the “solubility (in words, BCS)” value is recorded as “low solubility”.
For `O=C1CC[C@@H](N2Cc3cc(N4CCN(CC5CCN(c6ccc([C@@H]7c8ccc(O)cc8CC[C@@H]7c7ccccc7)cc6)CC5)CC4)ccc3C2=O)C(=O)N1` [Compound B], the “exposure of Compound B compared to Compound A” value in data set [2] is recorded as less than 26%. In addition, the ER degradation entry on ER was “does not degrade the ER”.
